According to patent publication US20260242359A1, “IRHOM2 INHIBITORS AND USES THEREOF” (NEW YORK SOCIETY FOR THE RELIEF OF THE RUPTURED AND …, priority 2023, published 2026):

Tested on: PMA-induced release of endogenous IL-6R from human peripheral blood mononuclear cells (PBMCs)
Assay: Example 14: ELISA-based IL-6R release assay, PMA-induced, PBMCs from healthy donor
Assay type: cell-based
Conditions: 10 μM final concentration, PMA 25 ng/ml, delta Buffer stimulated vs unstimulated = 100% inhibition; for inhibition at 10 µM: Homo sapiens, PBMC
Protocol: In the following study, ELISA-based IL-6R release assays were performed to analyze the inhibitory effects of Compounds 1, 2, 3, 4, 5, and 7 on PMA-induced release of endogenous IL-6R from primary human material obtained from healthy donor using peripheral blood mononuclear cells (PBMCs). The ELISA-based IL-6R release assay that was used in this example is described below.
In brief, on day 1, Nunc black MaxiSorp® 96-well plates (Thermo Fisher Scientific, USA) were coated overnight with […] per well of mouse anti-human IL-6R capture antibody (provided as part of the DuoSet ELISA kit) at 2 μg/ml TBS at 4° C.
40,000 PBMCs from healthy donor (SciRhom GmbH, Germany) in 80 μl of normal growth medium were seeded in each well of Greiner CELLSTAR V-bottom 96-well plates (Greiner Bio-One, Germany) and pre-incubated with 20 μl per well of standard growth medium supplemented with Batimastat (BB94, Abcam, UK) at 50 μM as positive control (for a final concentration of 10 μM in the resulting 100 μl sample volume), compounds of the invention at 50 μM (for a final concentration of 10 μM in the resulting 100 μl sample volume) and in case of Buffer stimulated and unstimulated controls with DMSO (Carl Roth, Germany) at 50 μM (for a final concentration of 10 μM in the resulting 100 μl sample volume) at 37° C., 5% CO2 for 30 minutes. Subsequently, cells (except those for unstimulated controls) were stimulated with 20 μl per well of PMA (Sigma-Aldrich, USA) at 150 ng/ml in growth medium for a final concentration of 25 ng/ml at 37° C., 5% CO2 for 22 hours.
On day 2, the capture antibody solution was removed and MaxiSorp® plates were blocked with 300 μl per well of TBS, 1% BSA at room temperature for 2-3 hours. Meanwhile, the 96-well plates were centrifuged to pellet cells. In parallel, blocking buffer was removed from the MaxiSorp® plates and plates were washed 4 times with 350 μl TBS-T (Carl Roth, Germany) per well on a 96-head plate washer (Tecan Group, Switzerland). To avoid drying-up, 30 μl TBS were added to each well of the MaxiSorp® plates immediately, followed by the transfer of 70 μl cell-free supernatant per sample. Additionally, 100 μl recombinant human IL-6R protein (provided as part of the DuoSet ELISA kit) diluted in TBS at defined concentrations were added to the plate as standard references. Plates were incubated at room temperature for 2 hours. After 4 times washing with 350 μl TBS-T (Carl Roth, Germany) per well on a 96-head plate washer (Tecan Group, Switzerland) and careful removal of all buffer traces after the fourth cycle, 100 μl biotinylated goat anti-human IL-6R detection antibody (provided as part of the DuoSet ELISA kit) at 100 ng/ml TBS were added per well and, protected from direct light, plates were incubated at room temperature for 2 hours. After 4 times washing with 350 μl TBS-T (Carl Roth, Germany) per well on a 96-head plate washer (Tecan Group, Switzerland) and careful removal of all buffer traces after the fourth cycle, 100 μl streptavidin-AP (R&D Systems, USA) diluted 1:10,000 in TBS were added to each well and, again protected from direct light, plates were incubated at room temperature for 30 minutes. Following another round of 4 times washing with 350 μl TBS-T (Carl Roth, Germany) per well on a 96-head plate washer (Tecan Group, Switzerland) and careful removal of all buffer traces after the fourth cycle, 100 μl AttoPhos substrate solution (Promega, USA) per well was added for incubation in the dark at room temperature for 1 hour. Using an infinite M1000 (Tecan Group, Switzerland) microplate reader, the fluorescence of each well was collected at an excitation wavelength of 435 nm and an emission wavelength of 555 nm.
The delta between Buffer stimulated and Buffer unstimulated was defined 100% inhibition.

Q: For Cc1c(C(=O)NCc2cccs2)sc(=O)n1Cc1ccccc1F [Compound 5], which inhibition at 10 µM (22 h) is on record?
A: 6.5%

Q: How did the inhibition at 10 µM (22 h) turn out when Cc1c(C(=O)NCc2cccs2)sc(=O)n1Cc1ccccc1 [Compound 4] was run?
A: 6.2%

Q: How did the inhibition at 10 µM (22 h) turn out when CCOC(=O)c1ccc(Nc2nc3nonc3n3nnnc23)cc1 [Compound 2] was run?
A: 111%

Q: For Cc1c(C(=O)NCc2ccco2)sc(=O)n1Cc1ccccc1F [Compound 7], which inhibition at 10 µM (22 h) is on record?
A: 59.1%

Q: Which inhibition at 10 µM (22 hours) does the source give for CCC(=O)NCCc1c(/C=C2/C(=O)NC(=O)N(c3ccc(C)cc3C)C2=O)[nH]c2ccccc12 [Compound 1] here?
A: 112%

Q: How did the inhibition at 10 µM (22 h) turn out when O=C(c1c(Cl)cccc1Cl)N1CCC(Cc2ccc(F)cc2)CC1 [Compound 3] was run?
A: 0%

Q: How did the “inhibition of PMA-induced release of IL-6R from PBMCs from healthy donor” value (22 hours) turn out when CNC(=O)[C@H](Cc1ccccc1)NC(=O)[C@H](CC(C)C)[C@H](CSc1cccs1)C(=O)NO [Batimastat, reference compound] was run?
A: 98.5%

Q: And the inhibition at 10 µM (22 h)?
A: 100%
